The text below walks through data of BindingDB's records for doi:10.1021/acs.jmedchem.3c00250 (n/a, 2023).

This assay has as its target Protein arginine N-methyltransferase 5/MEP50 complex (Homo sapiens). As to the kind of experiment: Inhibition of full-length recombinant PRMT5/full-length recombinant MEP50 (unknown origin) expressed in baculovirus infected Sf21 cells using biotinylated H4R3(Mel) peptide as substrate preincubated for 60 mins followed by substrate addition and measured for 150 minutes in the presence of SAM by methylation assay.

Take `CC(=O)N1CCC(Nc2cc(C(=O)N3CC[C@H](N4CCc5ccccc5C4)[C@@H](O)C3)c(F)cn2)CC1`: the EC50 is 0.9 nM.

Usually EC50 stands for the concentration giving half of the maximal effect.
